Measurements published in US5441563A, “Highly insoluble azole embossing inhibitor and the use thereof” (Armstrong World Industries, Inc., priority 1994, dated 1995).
In brackets after ≈: the same amount, converted by molar mass.

Key:
physchem = assay type: physicochemical; conditions: for Solubility in iPrOH: 1440 min; for solubility at 24 h / Solubility in H2O: water; for Solubility in H2O: 24 h
[1] = Inhibitor activity (IA), depth of chemical embossing and degree of expansion ranked against BTA-P (Table II); set-up: key to Inhibitor Activity (IA): 1: Excellent; 2: Very Good; 3: Good; 4: Fair; 5: Poor; None; conditions: 10% by weight inhibitor in ink; scale 1 to 5, BTA-P benchmark = 1; 7 mil plastisol, 185 °C, 1.9 min
Procedure: Table II sets forth a number of properties of the examples and comparative examples which were made and tested. Most of these compounds were prepared using the direct milling procedure and then evaluated for inhibitor activity, ghosting and embossing definition.
The inhibited inks (at 10% by weight inhibitor concentration) were printed on 7 mils of an expandable plastisol coated onto a glass mat which was saturated with a non-expandable plastisol. This was done on a flat-bed gravure proof press using a 100 line screen step-wedge gravure plate. The steps ranged from a deep shadow tone to a shallow highlight tone. The inks printed and dried without any tack.
The printed samples were coated with 10 mils of a clear plastisol wearlayer and heated for 1.9±0.1 minutes at an air temperature of 185°±2° C. in a Werner. Mathis oven to fuse and expand the foamable plastisol to about 14 mils (a 2:1 blow ratio). The thickness of the printed coated areas (i.e., restricted area) was measured in mils and compared to the thickness of the expanded unprinted surrounding areas. This difference was recorded as depth of chemical embossing and was used along with the degree of expansion in the inhibited area to access the inhibitor activity (IA).
The inhibitor activity of the BTA-P derivative was established as the benchmark and on a scale of 1 to 5 was given a rating of 1 (five on the scale being less than one mil of overall chemical embossing). This is a subjective ranking where the other compounds were evaluated for inhibitor activity by comparing them to BTA-P, both numerically and visually.

[2] = Stability of dispersions and ink compositions containing the inhibitor; assay type: physicochemical; conditions: for Stability of ink mixture: sonicated
[3] = as above; assay type: physicochemical
Procedure: A cationic dispersion of TTA-P was prepared using a quaternary ammonium salt, stearyl dimethylbenzylammonium chloride, (Maquat SC-18, Mason Chemical Co.), as the stabilizer. The product was first diminutized by grinding the coarse powder (TTA-P) for approximately 18 hours in a standard ball mill using a combination of 12 mm diameter spherical and 6 mm diameter×6 mm high cylindrical balls. Approximately 1/2 of the 1 L ball mill volume was filled for the grinding operation. […] The dispersion was then prepared by adding 2.35 parts Maquat SC-18 (85% active) to 37.65 parts deionized water and stirring until dissolved. A total of 40 parts of TTA-P was then added to the surfactant solution in 5 part increments with stirring, followed by agitation with a sonic dismembrator, (Fisher Model 3000). The sonic probe was inserted directly into the suspension and run on the highest setting for 1-2 minutes. A creamy dispersion resulted initially, with viscosity increasing with increasing solids content. The final suspension was a uniform paste with a concentration of 50% by weight solids.
A blue aqueous inhibitor ink was prepared by adding 0.20 parts of CIB 103 Blue Pigment (sold by Penn Color, Inc.) to 20 parts of CIE 94 Extender (sold by Penn Color, Inc.) and stirring to uniform coloration. Then 6.06 parts of the 50% suspension of TTA-P (prepared in Example 4) was then added to the ink mixture and stirred to uniform coloration.
An anionic dispersion paste of TTA-P was prepared with a polyoxyethylene branched nonylphenyl ether phosphate surfactant, (Rhodofac PE-50, Rhone Poulenc). Diminutization of the compound was performed by milling as described in Example 4. Dispersion of the compound was accomplished using the sonic dismembrator, also described in Example 4. Materials were combined in the proportion: 40 parts of deionized water, 2.06 parts of the surfactant and 40 parts of TTA-P. Materials were added in the listed sequence.
The anionic dispersion of TTA-P (Example 6) was added to an anionic ink formulation of Sicpa Corp. The resultant mixture consisted of 20 parts Sicpa Extender 694556, 0.20 parts Sicpa black ink 674554 and 6.06 parts of the 48.7% dispersion of the compound (Example 6).
A portion of BTA-P, the benzotriazole-piperazine derivative, was stably dispersed with the cationic surfactant stearyldimethylbenzylammonium chloride, (Maquat SC-18, Mason Chemical Co.). The compound was milled and dispersed as in Example 4. The materials were combined in the proportion: 20 parts deionized water, 1.18 parts Maquat SC-18, (85% active), and 33.16 parts BTA-P. The materials were added in the listed sequence. […] The paste was 61% by weight of BTA-P.
The cationic dispersion of BTA-P (Example 8) was added to a cationic ink formulation of Penn Color. The mixture consisted of 20 parts Penn Color Extender CIE 94, 0.20 parts Penn Color CIB 103 blue ink and 4.96 parts of the 61% dispersion of BTA-P (Example 8).
A portion of HTTA-P, the hydrogenated tolyltriazolepiperazine derivative, was colloidally dispersed with the cationic surfactant stearyldimethylbenzylammonium chloride, (Maquat SC-18, Mason Chemical Co.). The milling and dispersing procedures of Example 4 were followed. The materials were combined in the proportion: 21 parts deionized water, 1 part Maquat SC-18, (85% active), and 37 parts HTTA-P. The materials were added in the listed sequence. […] The paste was 62.7% by weight of HTTA-P.
The cationic dispersion of HTTA-P (Example 10) was added to a cationic ink formulation of Penn Color. The mixture consisted of 20 parts Extender CIE 94, 0.20 parts CIB 103 blue ink and 4.83 parts of the 62.7% dispersion of HTTA-P (Example 10).
Hitherto, dispersion of these new inhibitors directly into the ink formulation was not considered. The instability problems of other triazole inhibitors seemed to indicate that a surfactant in addition to that found in the ink and extender was required. […]

[4] = cationic aqueous ink with cationic dispersion
[5] = cationic dispersion paste, Maquat SC-18

Solubility in iPrOH (physchem) | solubility at 24 h (physchem) | Stability of dispersion ([2]; direct milling in cationic ink extender CIE 94, about 18 hours) | Stability of ink mixture [3, 4] | Stability of dispersion [3, 5] | Solubility in H2O (physchem) | Stability of ink mixture ([2]; direct addition to anionic ink) | Stability of ink mixture ([2]; direct addition to cationic ink) | Stability of ink mixture ([3]; anionic aqueous ink with anionic dispersion) | Stability of dispersion ([3]; anionic dispersion paste, Rhodofac PE-50) | Compound | Inhibitor Activity (IA) [1]
0.019 % BY WT | 60 µg/mL (≈ 151 µM) | – | – | – | – | – | – | – | – | O=C(NN(Cn1nnc2ccccc21)Cn1nnc2ccccc21)c1ccccc1 [BTA-HYR, 1-Bis(Benzotriazol-1'-yl Methyl)-2-Benzoyl Hydrazide] | 1
0.051 % BY WT | 510 µg/mL (≈ 930 µM) | – | – | – | – | – | – | – | – | O=S(=O)(NCn1nnc2ccccc21)c1cccc2c(S(=O)(=O)NCn3nnc4ccccc43)cccc12 [BTA-NDSA, 1(1',5'-naphthalenedisulfonamido) methyl benzotriazole] | 1
1.08 % BY WT | 800 µg/mL (≈ 2710 µM) | – | – | – | – | – | – | – | – | ON(Cn1nnc2ccccc21)Cn1nnc2ccccc21 [BTA-NOH, N,N-bis (benzotriazol-1-yl methyl) hydroxylamine] | 1
0.007 % BY WT | 10 µg/mL (≈ 28.7 µM) | homogeneous stable dispersion | colloidally stable | stable homogenous paste | – | – | – | – | – | c1ccc2c(c1)nnn2CN1CCN(Cn2nnc3ccccc32)CC1 [BTA-P, N,N'-bis(benzotriazol-1-ylmethyl) piperazine] | 1
0.011 % BY WT | 10 µg/mL (≈ 29.6 µM) | – | – | – | – | – | – | – | – | S=C(NCn1nnc2ccccc21)NCn1nnc2ccccc21 [BTA-TU, 1,3-bis(benzotriazol-1-ylmethyl) thiourea] | 2
0.08 % BY WT | 20 µg/mL (≈ 62 µM) | – | – | – | – | – | – | – | – | O=C(NCn1nnc2ccccc21)NCn1nnc2ccccc21 [BTA-U, 1,3-bis(benzotriazol-1'-ylmethyl) urea] | 1
– | – | – | colloidally stable | stable homogenous paste | – | – | – | – | – | N,N'-Bis(Methylcyclohexyltriazol-1-yl Methyl) Piperazine [HTTA-P] | 1
0.204 % BY WT | – | – | colloidally stable and disperse | – | 0.031 % BY WT | homogenous and stable mixture | homogenous and stable mixture | colloidally stable | stable, homogenous paste | N,N'-bis(tolyltriazol-1-yl methyl) piperazine [TTA-P] | 1
52.9 % BY WT | – | – | – | – | 0.55 % BY WT | – | – | – | – | Tolyltriazole [TTA, reference compound] | 2
